Assay results taken from the supplement of paper PMC10307832.

Assays:
Experiment in all cases: relative viability (nuclei count vs DMSO), 5 days (fraction); higher = more cells survive
Hydroxychloroquine = compound: CCN(CCO)CCCC(C)Nc1ccnc2cc(Cl)ccc12 [Hydroxychloroquine]
Method in brief: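 Viability was read as treated-well nuclei divided by vehicle-well nuclei, using the median across plates. Lung cancer cell lines in 1536-well plates were kept overnight at 37 °C, pinned with five √10-spaced library-drug doses, and after 5 days were Hoechst-stained, imaged at 4× and counted in MetaXpress. Plates passed only with control CV below 25% and at least one doubling.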

[1] = compound: CCN(CCO)CCCC(C)Nc1ccnc2cc(Cl)ccc12 [Hydroxychloroquine] + CCNC(=O)c1noc(-c2cc(C(C)C)c(O)cc2O)c1-c1ccc(CN2CCOCC2)cc1 [Luminespib] (partner 0.01 µM)
Method in brief: (§1)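 Nuclei were stained with Hoechst during a one-step fixation (final 0.05% Triton X-100, 1% formaldehyde, 1 ug/ml Hoechst) carried out 5 days after dosing, then counted on 4× images. The cells, lung cancer lines in 1536-well plates, had been dosed by pin tool the day after seeding with one drug alone or a fixed anchor-drug dose plus five library-drug doses (not always all listed) in √10 steps. Relative viability is the nuclei count in treated wells divided by that in vehicle wells, and each value is the median of duplicate plates.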

[2] = compound: CCN(CCO)CCCC(C)Nc1ccnc2cc(Cl)ccc12 [Hydroxychloroquine] + COc1cc2c(Oc3ccc(NC(=O)C4(C(=O)Nc5ccc(F)cc5)CC4)cc3F)ccnc2cc1OCCCN1CCOCC1 [Foretinib] (partner 0.25 µM)
Method in brief: as §1

[3] = compound: CCN(CCO)CCCC(C)Nc1ccnc2cc(Cl)ccc12 [Hydroxychloroquine] + COc1cccc2cc(-c3nc([C@H]4CC[C@H](C(=O)O)CC4)n4ncnc(N)c34)[nH]c12 [OSI-027] (partner 0.5 µM)
Method in brief: as §1

[4] = compound: CCN(CCO)CCCC(C)Nc1ccnc2cc(Cl)ccc12 [Hydroxychloroquine] + Cc1cc(Nc2cc(N3CCN(C)CC3)nc(Sc3ccc(NC(=O)C4CC4)cc3)n2)n[nH]1 [Tozasertib] (partner 0.1 µM)
Method in brief: as §1

[5] = compound: CCN(CCO)CCCC(C)Nc1ccnc2cc(Cl)ccc12 [Hydroxychloroquine] + Cc1nc(Nc2ncc(C(=O)Nc3c(C)cccc3Cl)s2)cc(N2CCN(CCO)CC2)n1 [Dasatinib] (partner 0.075 µM)
Method in brief: as §1

[6] = compound: CCN(CCO)CCCC(C)Nc1ccnc2cc(Cl)ccc12 [Hydroxychloroquine] + N=C(N)NC(=N)NCCc1ccccc1 [Phenformin] (partner 250 µM)
Method in brief: as §1

[7] = compound: CCN(CCO)CCCC(C)Nc1ccnc2cc(Cl)ccc12 [Hydroxychloroquine] + CC(=O)Nc1cccc(-n2c(=O)n(C3CC3)c(=O)c3c(Nc4ccc(I)cc4F)n(C)c(=O)c(C)c32)c1 [Trametinib] (partner 0.02 µM)
Method in brief: as §1

[8] = compound: CCN(CCO)CCCC(C)Nc1ccnc2cc(Cl)ccc12 [Hydroxychloroquine] + CC(=O)c1c(C)c2cnc(Nc3ccc(N4CCNCC4)cn3)nc2n(C2CCCC2)c1=O [Palbociclib] (partner 0.5 µM)
Method in brief: as §1

[9] = compound: CCN(CCO)CCCC(C)Nc1ccnc2cc(Cl)ccc12 [Hydroxychloroquine] + NC(=O)Nc1cc(-c2cccc(F)c2)sc1C(=O)N[C@H]1CCCNC1 [AZD7762] (partner 0.2 µM)
Method in brief: as §1

[10] = compound: CCN(CCO)CCCC(C)Nc1ccnc2cc(Cl)ccc12 [Hydroxychloroquine] + Nc1nc2[nH]cc(CCc3ccc(C(=O)N[C@@H](CCC(=O)O)C(=O)O)cc3)c2c(=O)[nH]1 [Pemetrexed] (partner 0.2 µM)
Method in brief: as §1

[11] = compound: CCN(CCO)CCCC(C)Nc1ccnc2cc(Cl)ccc12 [Hydroxychloroquine] + Nc1ncn([C@H]2C[C@H](O)[C@@H](CO)O2)c(=O)n1 [Decitabine] (partner 2 µM)
Method in brief: as §1

[12] = compound: CCN(CCO)CCCC(C)Nc1ccnc2cc(Cl)ccc12 [Hydroxychloroquine] + O=C(CCCCCCC(=O)Nc1ccccc1)NO [Vorinostat] (partner 1 µM)
Method in brief: as §1

[13] = compound: CCN(CCO)CCCC(C)Nc1ccnc2cc(Cl)ccc12 [Hydroxychloroquine] + O=C(c1cc(Cc2n[nH]c(=O)c3ccccc23)ccc1F)N1CCN(C(=O)C2CC2)CC1 [Olaparib] (partner 8 µM)
Method in brief: as §1

NCI-H1623 showed a relative viability (Hydroxychloroquine; 0.5 µM) of 0.88, a relative viability (Hydroxychloroquine; 1.581 µM) of 0.959 and a relative viability (Hydroxychloroquine; 5 µM) of 0.941. The relative viability (Hydroxychloroquine; 15.81 µM) was 0.943, the relative viability (Hydroxychloroquine; 50 µM) was 0.992 and the relative viability ([1]; first compound 0.5 µM) was 0.431. The relative viability ([1]; first compound 1.581 µM) was 0.409, the relative viability ([1]; first compound 5 µM) was 0.496 and the relative viability ([1]; first compound 15.81 µM) was 0.74. It also gave a relative viability ([1]; first compound 50 µM) of 0.537, a relative viability ([2]; first compound 0.5 µM) of 0.823 and a relative viability ([2]; first compound 1.581 µM) of 0.842. For the same cell line, the relative viability ([2]; first compound 5 µM) was 0.88, the relative viability ([2]; first compound 15.81 µM) was 0.937 and the relative viability ([2]; first compound 50 µM) was 0.82. For the same cell line, the relative viability ([3]; first compound 0.5 µM) was 0.411, the relative viability ([3]; first compound 1.581 µM) was 0.406 and the relative viability ([3]; first compound 5 µM) was 0.449. It also gave a relative viability ([3]; first compound 15.81 µM) of 0.418, a relative viability ([3]; first compound 50 µM) of 0.439 and a relative viability ([4]; first compound 0.5 µM) of 0.392. It also gave a relative viability ([4]; first compound 1.581 µM) of 0.405, a relative viability ([4]; first compound 5 µM) of 0.406 and a relative viability ([4]; first compound 15.81 µM) of 0.526. It also gave a relative viability ([4]; first compound 50 µM) of 0.488, a relative viability ([5]; first compound 0.5 µM) of 0.554 and a relative viability ([5]; first compound 1.581 µM) of 0.485. The relative viability ([5]; first compound 5 µM) was 0.51, the relative viability ([5]; first compound 15.81 µM) was 0.547 and the relative viability ([5]; first compound 50 µM) was 0.52. The relative viability ([6]; first compound 0.5 µM) was 0.544, the relative viability ([6]; first compound 1.581 µM) was 0.565 and the relative viability ([6]; first compound 5 µM) was 0.578. The relative viability ([6]; first compound 15.81 µM) was 0.606 and the relative viability ([6]; first compound 50 µM) was 0.588.

SW 900 was tested, and the relative viability (Hydroxychloroquine; 0.5 µM) was 0.879, the relative viability (Hydroxychloroquine; 1.581 µM) was 0.729 and the relative viability (Hydroxychloroquine; 5 µM) was 0.837. The relative viability (Hydroxychloroquine; 15.81 µM) was 0.717, the relative viability (Hydroxychloroquine; 50 µM) was 0.889 and the relative viability ([7]; first compound 0.5 µM) was 0.761. It also gave a relative viability ([7]; first compound 1.581 µM) of 1.01, a relative viability ([7]; first compound 5 µM) of 0.779 and a relative viability ([7]; first compound 15.81 µM) of 0.879. It also gave a relative viability ([7]; first compound 50 µM) of 0.806, a relative viability ([8]; first compound 0.5 µM) of 0.5 and a relative viability ([8]; first compound 1.581 µM) of 0.502. The relative viability ([8]; first compound 5 µM) was 0.568, the relative viability ([8]; first compound 15.81 µM) was 0.597 and the relative viability ([8]; first compound 50 µM) was 0.657. It also gave a relative viability ([1]; first compound 0.5 µM) of 0.156, a relative viability ([1]; first compound 1.581 µM) of 0.176 and a relative viability ([1]; first compound 5 µM) of 0.195. It also gave a relative viability ([1]; first compound 15.81 µM) of 0.17, a relative viability ([1]; first compound 50 µM) of 0.177 and a relative viability ([2]; first compound 0.5 µM) of 0.941. For the same cell line, the relative viability ([2]; first compound 1.581 µM) was 0.824, the relative viability ([2]; first compound 5 µM) was 0.866 and the relative viability ([2]; first compound 15.81 µM) was 0.816. For the same cell line, the relative viability ([2]; first compound 50 µM) was 0.869, the relative viability ([3]; first compound 0.5 µM) was 0.491 and the relative viability ([3]; first compound 1.581 µM) was 0.664. It also gave a relative viability ([3]; first compound 5 µM) of 0.482, a relative viability ([3]; first compound 15.81 µM) of 0.547 and a relative viability ([3]; first compound 50 µM) of 0.505. The relative viability ([4]; first compound 0.5 µM) was 0.517, the relative viability ([4]; first compound 1.581 µM) was 0.531 and the relative viability ([4]; first compound 5 µM) was 0.548. It also gave a relative viability ([4]; first compound 15.81 µM) of 0.74, a relative viability ([4]; first compound 50 µM) of 0.572 and a relative viability ([5]; first compound 0.5 µM) of 0.586. The relative viability ([5]; first compound 1.581 µM) was 0.574, the relative viability ([5]; first compound 5 µM) was 0.671 and the relative viability ([5]; first compound 15.81 µM) was 0.528. The relative viability ([5]; first compound 50 µM) was 0.559, the relative viability ([6]; first compound 0.5 µM) was 0.514 and the relative viability ([6]; first compound 1.581 µM) was 0.496. For the same cell line, the relative viability ([6]; first compound 5 µM) was 0.509, the relative viability ([6]; first compound 15.81 µM) was 0.585 and the relative viability ([6]; first compound 50 µM) was 0.513. For the same cell line, the relative viability ([9]; first compound 0.5 µM) was 0.678, the relative viability ([9]; first compound 1.581 µM) was 0.681 and the relative viability ([9]; first compound 5 µM) was 0.679. The relative viability ([9]; first compound 15.81 µM) was 0.748, the relative viability ([9]; first compound 50 µM) was 0.594 and the relative viability ([10]; first compound 0.5 µM) was 0.43. The relative viability ([10]; first compound 1.581 µM) was 0.47, the relative viability ([10]; first compound 5 µM) was 0.448 and the relative viability ([10]; first compound 15.81 µM) was 0.457. It also gave a relative viability ([10]; first compound 50 µM) of 0.444, a relative viability ([11]; first compound 0.5 µM) of 0.398 and a relative viability ([11]; first compound 1.581 µM) of 0.445. It also gave a relative viability ([11]; first compound 5 µM) of 0.422, a relative viability ([11]; first compound 15.81 µM) of 0.417 and a relative viability ([11]; first compound 50 µM) of 0.41. For the same cell line, the relative viability ([12]; first compound 0.5 µM) was 0.532, the relative viability ([12]; first compound 1.581 µM) was 0.535 and the relative viability ([12]; first compound 5 µM) was 0.504. The relative viability ([12]; first compound 15.81 µM) was 0.382, the relative viability ([12]; first compound 50 µM) was 0.505 and the relative viability ([13]; first compound 0.5 µM) was 0.894. It also gave a relative viability ([13]; first compound 1.581 µM) of 0.852, a relative viability ([13]; first compound 5 µM) of 0.88 and a relative viability ([13]; first compound 15.81 µM) of 0.819. It also gave a relative viability ([13]; first compound 50 µM) of 0.75.
